Measured values taken from PubChem BioAssay (NCI).
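GI50: concentration for 50% inhibition of growth. TGI: concentration producing complete growth inhibition.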

Experiments:
Test in all cases: NCI tumour cell line growth inhibition, 384-well format
786-0 renal = system: 786-0 renal
A498 renal = system: A498 renal
A549 NSCLC = system: A549 NSCLC
ACHN renal = system: ACHN renal
BT-549 breast = system: BT-549 breast
CAKI-1 renal = system: CAKI-1 renal
COLO 205 colon = system: COLO 205 colon
DU-145 prostate = system: DU-145 prostate
EKVX NSCLC = system: EKVX NSCLC
HCT-116 colon = system: HCT-116 colon
HCT-15 colon = system: HCT-15 colon
HL-60(TB) leukemia = system: HL-60(TB) leukemia
HOP-62 NSCLC = system: HOP-62 NSCLC
HOP-92 NSCLC = system: HOP-92 NSCLC
HS 578T breast = system: HS 578T breast
HT29 colon = system: HT29 colon
IGROV1 ovarian = system: IGROV1 ovarian
K-562 leukemia = system: K-562 leukemia
KM12 colon = system: KM12 colon
M14 melanoma = system: M14 melanoma
MALME-3M melanoma = system: MALME-3M melanoma
MCF7 breast = system: MCF7 breast
MDA-MB-231 breast = system: MDA-MB-231 breast
MDA-MB-435 melanoma = system: MDA-MB-435 melanoma
MDA-MB-468 breast = system: MDA-MB-468 breast
MOLT-4 leukemia = system: MOLT-4 leukemia
NCI-H226 lung = system: NCI-H226 lung
NCI-H23 lung = system: NCI-H23 lung
NCI-H322M lung = system: NCI-H322M lung
NCI-H460 NSCLC = system: NCI-H460 NSCLC
NCI-H522 lung = system: NCI-H522 lung
OVCAR-3 ovarian = system: OVCAR-3 ovarian
OVCAR-4 ovarian = system: OVCAR-4 ovarian
OVCAR-5 ovarian = system: OVCAR-5 ovarian
OVCAR-8 ovarian = system: OVCAR-8 ovarian
PC-3 prostate = system: PC-3 prostate
RXF 393 renal = system: RXF 393 renal
SF-268 CNS = system: SF-268 CNS
SF-295 CNS = system: SF-295 CNS
SF-539 CNS = system: SF-539 CNS
SK-MEL-2 melanoma = system: SK-MEL-2 melanoma
SK-MEL-28 melanoma = system: SK-MEL-28 melanoma
SK-MEL-5 melanoma = system: SK-MEL-5 melanoma
SK-OV-3 ovarian = system: SK-OV-3 ovarian
SN12C renal = system: SN12C renal
SNB-19 CNS = system: SNB-19 CNS
SNB-75 CNS = system: SNB-75 CNS
SR leukemia = system: SR leukemia
SW-620 colon = system: SW-620 colon
T-47D breast = system: T-47D breast
TK-10 renal = system: TK-10 renal
U251 glioblastoma = system: U251 glioblastoma
UACC-257 melanoma = system: UACC-257 melanoma
UACC-62 melanoma = system: UACC-62 melanoma
UO-31 renal = system: UO-31 renal

`N#Cc1ncc(N2C(=O)C3(CCC3)N(c3ccc(OC4CCNCC4)nc3)C2=S)cc1C(F)(F)F` was tested, and the GI50 ([…]-0 renal) was 12 µM, the TGI (786-0 renal) was 24.4 µM and the GI50 (A498 renal) was 10.8 µM. The TGI (A498 renal) was 22.7 µM, the GI50 (A549 NSCLC) was 16.7 µM and the TGI (A549 NSCLC) was 30.5 µM. The GI50 (ACHN renal) was 15.3 µM, the TGI (ACHN renal) was 28.7 µM and the GI50 (BT-549 breast) was 11.1 µM. For the same compound, the TGI (BT-549 breast) was 23.1 µM, the GI50 (CAKI-1 renal) was 5.96 µM and the TGI (CAKI-1 renal) was 18.3 µM. For the same compound, the GI50 (COLO 205 colon) was 15.1 µM, the TGI (COLO 205 colon) was 28.4 µM and the GI50 (DU-145 prostate) was 14.5 µM. For the same compound, the TGI (DU-145 prostate) was 27.9 µM, the GI50 (EKVX NSCLC) was 10.2 µM and the TGI (EKVX NSCLC) was 22 µM. It also gave a GI50 (HCT-116 colon) of 8.22 µM, a TGI (HCT-116 colon) of 20.7 µM and a GI50 (HCT-15 colon) of 5.19 µM. The TGI (HCT-15 colon) was 16.6 µM, the GI50 (HL-60(TB) leukemia) was 3.75 µM and the TGI (HL-60(TB) leukemia) was 15.8 µM. For the same compound, the GI50 (HOP-62 NSCLC) was 20.9 µM, the TGI (HOP-62 NSCLC) was 35.3 µM and the GI50 (HOP-92 NSCLC) was 12.7 µM. For the same compound, the TGI (HOP-92 NSCLC) was 25.4 µM, the GI50 (HS 578T breast) was 11.5 µM and the TGI (HS 578T breast) was 23.6 µM. It also gave a GI50 (HT29 colon) of 2.88 µM, a TGI (HT29 colon) of 8.52 µM and a GI50 (IGROV1 ovarian) of 14.4 µM. For the same compound, the TGI (IGROV1 ovarian) was 27.7 µM, the GI50 (K-562 leukemia) was 4.27 µM and the TGI (K-562 leukemia) was 16.1 µM. For the same compound, the GI50 (KM12 colon) was 17.1 µM, the TGI (KM12 colon) was 30.9 µM and the GI50 (M14 melanoma) was 3 µM. The TGI (M14 melanoma) was 8.44 µM, the GI50 (MALME-3M melanoma) was 2.68 µM and the TGI (MALME-3M melanoma) was 6.23 µM. It also gave a GI50 (MCF7 breast) of 4.76 µM, a TGI (MCF7 breast) of 16.6 µM and a GI50 (MDA-MB-231 breast) of 16.1 µM. It also gave a TGI (MDA-MB-231 breast) of 29.6 µM, a GI50 (MDA-MB-435 melanoma) of 13.4 µM and a TGI (MDA-MB-435 melanoma) of 26.3 µM. For the same compound, the GI50 (MDA-MB-468 breast) was 10.6 µM, the TGI (MDA-MB-468 breast) was 22.4 µM and the GI50 (MOLT-4 leukemia) was 10.1 µM. The TGI (MOLT-4 leukemia) was 21.7 µM, the GI50 (NCI-H226 lung) was 8.62 µM and the TGI (NCI-H226 lung) was 20.7 µM. It also gave a GI50 (NCI-H23 lung) of 11 µM, a TGI (NCI-H23 lung) of 23 µM and a GI50 (NCI-H322M lung) of 17.9 µM. The TGI (NCI-H322M lung) was 32.5 µM, the GI50 (NCI-H460 NSCLC) was 11.2 µM and the TGI (NCI-H460 NSCLC) was 23.4 µM. For the same compound, the GI50 (NCI-H522 lung) was 17.5 µM, the TGI (NCI-H522 lung) was 31.3 µM and the GI50 (OVCAR-3 ovarian) was 14 µM. The TGI (OVCAR-3 ovarian) was 27.1 µM, the GI50 (OVCAR-4 ovarian) was 13.6 µM and the TGI (OVCAR-4 ovarian) was 26.5 µM. It also gave a GI50 (OVCAR-5 ovarian) of 13.8 µM, a TGI (OVCAR-5 ovarian) of 27 µM and a GI50 (OVCAR-8 ovarian) of 14.5 µM. For the same compound, the TGI (OVCAR-8 ovarian) was 27.7 µM, the GI50 (PC-3 prostate) was 14.4 µM and the TGI (PC-3 prostate) was 27.5 µM. It also gave a GI50 (RXF 393 renal) of 2.63 µM, a TGI (RXF 393 renal) of 7.32 µM and a GI50 (SF-268 CNS) of 13.4 µM. The TGI (SF-268 CNS) was 26.3 µM, the GI50 (SF-295 CNS) was 18.6 µM and the TGI (SF-295 CNS) was 32.6 µM. The GI50 (SF-539 CNS) was 12.4 µM, the TGI (SF-539 CNS) was 24.9 µM and the GI50 (SK-MEL-2 melanoma) was 5.98 µM. The TGI (SK-MEL-2 melanoma) was 17.9 µM, the GI50 (SK-MEL-28 melanoma) was 2.32 µM and the TGI (SK-MEL-28 melanoma) was 5.21 µM. For the same compound, the GI50 (SK-MEL-5 melanoma) was 11.8 µM, the TGI (SK-MEL-5 melanoma) was 24.1 µM and the GI50 (SK-OV-3 ovarian) was 18.1 µM. It also gave a TGI (SK-OV-3 ovarian) of 32.2 µM, a GI50 (SN12C renal) of 15.5 µM and a TGI (SN12C renal) of 28.9 µM. The GI50 (SNB-19 CNS) was 19.1 µM, the TGI (SNB-19 CNS) was 35.3 µM and the GI50 (SNB-75 CNS) was 14.5 µM. The TGI (SNB-75 CNS) was 27.7 µM, the GI50 (SR leukemia) was 1.9 µM and the TGI (SR leukemia) was 3.91 µM. The GI50 (SW-620 colon) was 14.5 µM, the TGI (SW-620 colon) was 27.8 µM and the GI50 (T-47D breast) was 8.96 µM. It also gave a TGI (T-47D breast) of 21.1 µM, a GI50 (TK-10 renal) of 7.64 µM and a TGI (TK-10 renal) of 20.1 µM. It also gave a GI50 (U251 glioblastoma) of 17.2 µM, a TGI (U251 glioblastoma) of 31 µM and a GI50 (UACC-257 melanoma) of 1.99 µM. The TGI (UACC-257 melanoma) was 3.79 µM, the GI50 (UACC-62 melanoma) was 2.03 µM and the TGI (UACC-62 melanoma) was 3.93 µM. It also gave a GI50 (UO-31 renal) of 14.7 µM and a TGI (UO-31 renal) of 27.9 µM.
